Assay [1] has as its system P. aeruginosa ATCC 27853. Put plainly: Salt sensitivity: MIC in the presence of physiological salts. The assay is classed as cell-based, Pseudomonas aeruginosa. As to the method:
The antimicrobial activity of the peptides was determined against both Gram-positive and -negative bacteria including 14 MDR P. aeruginosa clinical isolates from Bhumibol Adulyadej Hospital (Tables 1 and 3). The minimal inhibitory concentration (MIC) of each peptide was measured according to a modification of the National Committee for Clinical Laboratory Standards (NCCLS) broth microdilution method as previously described. Briefly, bacterial cells in mid-log phase were cultured in Müeller-Hinton broth (MHB) and then diluted to 10^7 CFU/ml. Fifty microliters of 2-fold serially diluted peptides, with concentrations ranging from 0.98 to 250 μg/ml in 0.01% (vol/vol) acetic acid and 0.2% (wt/vol) bovine serum albumin (BSA, Sigma), were added to each well of sterile 96-well plates, followed by 50 μl of bacterial solution. Plates were incubated at 37 °C for 24 h, and MICs were defined as the lowest concentration of peptide that prevented visible turbidity. Cultures without peptides and uninoculated MHB were employed as positive and negative controls, respectively. Colony count assays were performed to determine the minimal bactericidal concentrations (MBCs) for determination of time-killing activity. As previously described, a 50 μl aliquot from each non-turbid well identified in the MIC determination experiment was spread on agar plates. MBCs were defined as the lowest concentration of peptides where no colony growth was observed on agar plates after 24 h incubation at 37 °C.
To test the effect of salts on the antibacterial activity of PA-13, the mid-logarithmic phase (10^7 CFU/ml) of P. aeruginosa ATCC 27853 was exposed to different concentrations of PA-13 in the presence of different physiological salts: 150 mM NaCl; 4.5 mM KCl; 1 mM MgCl2; 6 µM NH4Cl; 8 µM ZnCl2; 4 µM FeCl3; […][22]. After these treatments, the MICs were determined as described above.

Assay [2] has as its system P. aeruginosa ATCC 27853. The experiment in a line: Membrane-penetrating activity of TAMRA-labelled peptide, flow cytometry. The assay is classed as cell-based, Pseudomonas aeruginosa. The note with it: 1 × MIC, measured with TAMRA-labelled PA-13. As to the method: To clarify whether bacterial membrane permeabilization resulted from peptide uptake, the interaction of TAMRA-labelled PA-13 with the membrane of bacteria cells was investigated by flow cytometry. […] After incubation, unbound labelled peptide was removed by washing with PBS. Then the fluorescence signal from treated cells was determined by flow cytometry (CytoFlex, Beckman Coulter).

Assay [3] concerns MDR P. aeruginosa clinical isolate No.5. The note with it: MDR clinical isolate No.5, 24 h.
The subject of assay [4] is all Gram-positive strains. Put plainly: Mean MIC and therapeutic index, Gram-positive strains. The assay is classed as cell-based. The note with it: 5 Gram-positive strains of Table 3.
The subject of assay [5] is MDR P. aeruginosa clinical isolate No.14. To be noted: MDR clinical isolate No.14, 24 h.
Another assay deals with LPS from E. coli O111:B4. Put plainly: LPS binding, chromogenic limulus amebocyte lysate (LAL) assay. The note with it: 1 EU/mL LPS, 1 × to 32 × MIC, 37 °C, 30 min; result in words. Details: species or system Escherichia coli. As for the experimental part:
The ability of PA-13 to bind LPS was assessed using a quantitative, chromogenic limulus amebocyte lysate (LAL) according to the manufacturer’s instructions (Thermo Scientific). The LAL test is a sensitive indicator of the presence of free or non-neutralized endotoxin[30]. Stock solutions of peptide were prepared in endotoxin-free water provided with the kit. […] LAL reagent was added and incubated for 10 min at 37 °C, followed by addition of a colorless substrate and incubation for a further 6 min. The reaction was stopped with 25% (vol/vol) glacial acetic acid and the release of p-nitroaniline followed by absorbance at 405 nm. Endotoxin-free water served as a negative control (blank) and was considered 0% LPS binding. After blank subtraction, the percentage of LPS binding was calculated according to the following equation: %LPSbinding=(ODUntreated-ODTreated)/ODUntreated×100

Assay [6] has as its system P. aeruginosa ATCC 27853. To be noted: ATCC 27853, 24 h.
Assay [7] relates to Staphylococcus epidermidis ATCC 12228. To be noted: ATCC 12228, 24 h.
The subject of assay [8] is MDR P. aeruginosa clinical isolate No.11. The note with it: MDR clinical isolate No.11, 24 h.
Assay [9] deals with P. aeruginosa ATCC 27853. Put plainly: Time-killing kinetics. The assay is classed as cell-based, Pseudomonas aeruginosa. As to the method: The bacterial killing kinetics of PA-13 was assessed by evaluating the time course to kill suspensions of P. aeruginosa ATCC 27853 as described previously. […] Plates were incubated at 37 °C to determine the number of CFU after 24 h; the assays were performed in triplicate.

Assay [10] deals with MDR P. aeruginosa clinical isolate No.13. The note with it: MDR clinical isolate No.13, 24 h.
The subject of assay [11] is MDR P. aeruginosa clinical isolate No.3. To be noted: MDR clinical isolate No.3, 24 h.

The record followed here is article PMC7272617 (Scientific Reports, 2020).

≈ marks a conversion by molar mass, not a printed value. Where a SMILES comes first, the peptide text is derived from it. Bounds are passed on as bounds.

On to `CC[C@H](C)[C@H](NC(=O)[C@H](CCCNC(=N)N)NC(=O)[C@H](CCCCN)NC(=O)[C@H](C)NC(=O)[C@@H](NC(=O)[C@@H](N)CCCCN)[C@@H](C)CC)C(=O)N[C@@H](Cc1c[nH]c2ccccc12)C(=O)N[C@@H](CCCCN)C(=O)N[C@H](C(=O)N[C@@H](CC(C)C)C(=O)N[C@@H](CCCNC(=N)N)C(=O)N[C@@H](CCCNC(=N)N)C(=O)N[C@@H](CCCNC(=N)N)C(N)=O)[C@@H](C)CC` [PA-13] (H-KIAKRIWKILRRR-NH2; N-terminus assumed), for which, in the assay on P. aeruginosa ATCC 27853 [1] (4 µM FeCl3, unit inferred), the MIC in the presence of FeCl3 amounted to 3.91 µg/mL. Moreover, the MIC in the presence of NH4Cl with P. aeruginosa ATCC 27853 [1] (6 µM NH4Cl, unit inferred) was determined as 3.91 µg/mL. Also, the MIC in the presence of ZnCl2 in the assay with P. aeruginosa ATCC 27853 [1] (8 µM ZnCl2, unit inferred) was determined as 3.91 µg/mL. Besides, in the assay with P. aeruginosa ATCC 27853 [1] (1 mM MgCl2, unit inferred), the MIC in the presence of MgCl2 is 31.2 µg/mL. For the same compound, the “increase of MIC in the presence of K+” value with P. aeruginosa ATCC 27853 [1] (4.5 mM KCl versus control) came to 2 fold. Also, the MIC in the presence of KCl with P. aeruginosa ATCC 27853 [1] (4.5 mM KCl, unit inferred) turned out to be 7.81 µg/mL. In the assay on P. aeruginosa ATCC 27853 [1] (150 mM NaCl, unit inferred), the MIC in the presence of NaCl amounted to 31.2 µg/mL. In the assay with P. aeruginosa ATCC 27853 [1] ([…] CaCl2, unit inferred), the MIC in the presence of CaCl2 is 3.91 µg/mL. In the assay with P. aeruginosa ATCC 27853 [1] (absence of physiological salts, unit inferred), the MIC, control came out at 3.91 µg/mL. Also, in the assay on P. aeruginosa ATCC 27853 [2], the “time to binding and penetration” value is at most 5 min. Moreover, the MIC (usually the lowest concentration found to suppress growth) in assay [3] was 7.81 µg/mL (≈ 4.5 µM); in assay [5], 7.81 µg/mL (≈ 4.5 µM); in assay [7], 3.91 µg/mL (≈ 2.25 µM); in assay [8], 7.81 µg/mL (≈ 4.5 µM); in assay [10] it was 15.63 µg/mL (≈ 9 µM); in assay [11], 7.81 µg/mL (≈ 4.5 µM). For the same compound, in [4], the “GM (Gr.+ strains): geometric mean of MIC values from all Gram-positive strains” value is 67.19 µg/mL. Besides, the LPS binding activity entry with LPS from E. coli O111:B4 is on record as “dose-dependent LPS binding activity”. In addition, the MBC (usually the smallest concentration meeting the test's criterion for killing) against P. aeruginosa ATCC 27853 [6] came out at 7.81 µg/mL (≈ 4.5 µM). Further, in the assay on P. aeruginosa ATCC 27853 [9], the “P. aeruginosa count within 30 min at MIC” value is listed as “approximately 10^4 CFU/ml”. In the assay with P. aeruginosa ATCC 27853 [9] (at MBC), the “time to complete killing (no regrowth)” value was at most 4 h. Further, in the assay with P. aeruginosa ATCC 27853 [9] (at MIC (and MBC)), the “time to eradicate most bacteria” value is at most 2 h. Besides, in the assay on P. aeruginosa ATCC 27853 [9] (at MIC, result in words), the “regrowth after 24 h treatment” value is listed as “regrowth was observed”. In the assay with P. aeruginosa ATCC 27853 [9] (start 10^7 CFU/ml, MBC (7.81 μg/ml), MHB, 37 °C), the “P. aeruginosa count within 30 min at MBC” value is recorded as ~10^2 CFU/ml.
